Measurements as given in the NIST ThermoML archive (doi:10.1016/j.jct.2013.05.046).

What was measured:
[1] = xn = mol fraction of the nth substance listed; conditions: 101 kPa, Liquid, Cone and plate viscometry, x2 = 0.8
[2] = refractive index (Na D-line) (dimensionless); xn = mol fraction of the nth substance listed; conditions: 101 kPa, Liquid, Standard Abbe refractometry, x2 = 0.8

CC[P+](c1ccccc1)(c1ccccc1)c1ccccc1.[I-] [ethyltriphenylphosphonium iodide] + O=S1(=O)CCCC1
Conditions	refractive index, 298.15 K	refractive index, 303.15 K	refractive index, 313.15 K	refractive index, 323.15 K	refractive index, 333.15 K	viscosity, 298.15 K [mPa·s]	viscosity, 308.15 K [mPa·s]	viscosity, 318.15 K [mPa·s]	viscosity, 328.15 K [mPa·s]	viscosity, 338.15 K [mPa·s]
[1]	–	–	–	–	–	95.03	52.14	24.15	15.24	9.578
[2]	1.516	1.5142	1.5104	1.5069	1.5033	–	–	–	–	–
